Experimental data reported in US9695127B2, “Compounds for treating HIV and methods for using the compounds” (University of Pittsburgh—Of the Commonwealth System of …, priority 2012, dated 2017).

How the values were obtained:
HIV-1 NL4-3 = experiment: HIV-1 infectivity in TZM-b1 reporter cells (luciferase); assay type: cell-based; details: Human immunodeficiency virus 1, NL43, TZM-b1, 48 h, read-out: INFECTIVITY @ 3 μM % Inhibition vs. DMSO control
Description: Compounds (1 μM) shown in FIG. 7 were added to cultures of U87MG and CEM-T4 cells in 96-well plates, followed by infection with wild-type HIV-1 NL4-3 (50 pg p24 equivalents/ml) 1 hour later. […] Virus replication was assessed by p24 ELISA after 4 days (U87MG) or 9 days (CEM-T4). Data are expressed as the mean percent inhibition as compared to control cultures incubated with the carrier solvent (DMSO)±S.E.M. (n=4). […] FIG. 9 concerns infectivity assays. Compounds (3 μM) were added to cultures of the reporter cell line TZM-b1 followed by infection with either wild-type or Nef-defective (ΔNef) HIV NL4-3 in 96-well plates. After 48 hours, relative virus infectivity was assessed as luciferase production in infected cells. […]
HIV assays: Viral stocks were prepared by transfection of 293T cells (ATCC) with wild-type and Nef-defective (ΔNef) proviral genomes (NL4—3 strain) and amplified in the T-cell line, MT2 (NIH AIDS Research and Reference Reagent Program). Viral replication was assessed in the U87MG astroglioma cell line engineered to express the HIV-1 co-receptors CD4 and CXCR4 or in the T-lymphoblast cell line, CEM-T4. […] Compounds were solubilized in DMSO, and added to the cell culture medium 1 h prior to infection with HIV. Viral replication was monitored for either 4 days (U87MG) or 9 days (CEM-T4) by measuring p24 Gag protein levels in the culture supernatant using standard ELISA-based techniques. HIV-1 infectivity was measured using the reporter cell line, TZM-b1 (NM AIDS Research and Reference Reagent Program). Cells were grown in 96-well plates (2.5×10^4) 8 h prior to virus infection to permit adherence. Compounds were pre-incubated with wild-type HIV-1 for 4 h prior to addition to the cells in a final volume of 200 μl. After 48 h at 37° C., the cells were washed with PBS and lysed in luciferase lysis buffer (Promega) by rocking for 15 min Lysates (40 μl) were transferred to white 96-well plates and 50 μl luciferase reagent (Promega) was injected into each well. Readings were recorded with a delay time of 2 sec and an integration period of 10 sec.

[1] = Preliminary pharmacokinetics in C3H mice; details: for T1/2: i.v., 2 mg/kg; for % F (oral bioavailability): p.o., 10 mg/kg
Description: Compounds were administered to male C3H mice via the i.v. and p.o. routes, and plasma concentrations were assessed by LC-MS/MS at the time points indicated. Plasma levels were determined for three mice at each time point and are shown as the mean±S.D.

wild-type HIV-1 NL4-3 = experiment: HIV-1 replication in U87MG cells (p24 ELISA); assay type: cell-based; details: for REPLICATION @ 3 μM % Inhibition vs. DMSO control: U87MG cells; for inhibition at 3 µM: Human immunodeficiency virus 1, NL43, U-87 MG, 96 h, read-out: REPLICATION @ 3 μM % Inhibition vs. DMSO control
Excerpt: In particular disclosed embodiments, the compound may be used to block Nef-dependent HIV replication and infectivity. FIG. 7 illustrates the chemical structures of the compounds identified by the Nef:Hck HTS campaign and subsequently shown to block Nef-dependent enhancement of HIV-1 replication in two different cell lines are shown, along with the IC50 values for each compound against Hck alone vs. the Nef:Hck complex. FIG. 8 illustrates results concerning HIV replication. […] Viral output for the DMSO-treated control cultures was consistently greater than 100-fold over the HIV input, typically ranging from 9,000-12,000 p24 equivalents/ml. Virus replication was assessed by p24 ELISA after 4 days (U87MG) or 9 days (CEM-T4). Data are expressed as the mean percent inhibition as compared to control cultures incubated with the carrier solvent (DMSO)±S.E.M. (n=4). Results of replication and cytotoxicity experiments with all certain hit compounds from the primary screen are shown in FIG. 3 and FIG. 4. FIG. 9 concerns infectivity assays. Compounds (3 μM) were added to cultures of the reporter cell line TZM-b1 followed by infection with either wild-type or Nef-defective (ΔNef) HIV NL4-3 in 96-well plates. After 48 hours, relative virus infectivity was assessed as luciferase production in infected cells. Results are plotted as the mean percent of HIV-1 infectivity observed in control cells incubated with the carrier solvent DMSO±S.E.M. (n=3). In the absence of Nef, infectivity is reduced by about 50% (ΔNef; dashed line shown for reference).
HIV assays: Viral stocks were prepared by transfection of 293T cells (ATCC) with wild-type and Nef-defective (ΔNef) proviral genomes (NL4—3 strain) and amplified in the T-cell line, MT2 (NIH AIDS Research and Reference Reagent Program). Viral replication was assessed in the U87MG astroglioma cell line engineered to express the HIV-1 co-receptors CD4 and CXCR4 or in the T-lymphoblast cell line, CEM-T4. Both the U87 MG and CEM-T4 cell lines support HIV-1 replication in a Nef-dependent manner, and were obtained from the NM AIDS Research and Reference Reagent Program. Compounds were solubilized in DMSO, and added to the cell culture medium 1 h prior to infection with HIV. Viral replication was monitored for either 4 days (U87MG) or 9 days (CEM-T4) by measuring p24 Gag protein levels in the culture supernatant using standard ELISA-based techniques. HIV-1 infectivity was measured using the reporter cell line, TZM-b1 (NM AIDS Research and Reference Reagent Program). Cells were grown in 96-well plates (2.5×10^4) 8 h prior to virus infection to permit adherence. Compounds were pre-incubated with wild-type HIV-1 for 4 h prior to addition to the cells in a final volume of 200 μl. After 48 h at 37° C., the cells were washed with PBS and lysed in luciferase lysis buffer (Promega) by rocking for 15 min Lysates (40 μl) were transferred to white 96-well plates and 50 μl luciferase reagent (Promega) was injected into each well. Readings were recorded with a delay time of 2 sec and an integration period of 10 sec.

cell-surface MHC-I = experiment: Nef-induced MHC-I downregulation in CEM-GFP cells (flow cytometry); assay type: cell-based; details: CEM-GFP cells infected with HIV-1 WT NL43, 8 days
Description: (§1) CEM-GFP cells were treated for 4 hrs with compounds or DMSO (control), then infected with 100 pg/ml HIV-1 WT NL43 or 500 pg/ml ΔNef-NL43.

cell-surface CD4 = experiment: Nef-induced CD4 downregulation in CEM-GFP cells (flow cytometry); assay type: cell-based; details: CEM-GFP cells infected with HIV-1 WT NL43, 8 days
Description: as §1
Percentages on the flow diagrams (FIGS. 33A-33E) show percent of cells positive for CD4.

Structure (SMILES)	inhibition at 3 µM (HIV-1 NL4-3) [%]	T1/2 [1] [h]	% F (oral bioavailability) [1] [%]	REPLICATION @ 3 μM % Inhibition vs. DMSO control (wild-type HIV-1 NL4-3)	Reversal of Nef-mediated MHC-I downregulation (cell-surface MHC-I)	Reversal of Nef-mediated CD4 downregulation (cell-surface CD4)	inhibition at 3 µM (wild-type HIV-1 NL4-3) [%]
NC(=S)n1nc(-c2ccc([N+](=O)[O-])cc2)c(CCc2cccc(Cl)c2)c1O [JZ-1-96-2-1]	59.5	1.53	85	Toxic			
NC(=S)n1nc(-c2ccc([N+](=O)[O-])cc2)c(Cc2cccc(Cl)c2)c1O [JZ-1-97-2-1]	56.6	1.66	57		reverse Nef-mediated MHC-I downregulation to the same extent observed in cells infected with Nef-defective HIV-1	reverse Nef-mediated CD4 downregulation to the same extent observed in cells infected with Nef-defective HIV-1	51.6
NC(=S)n1nc(-c2ccc(F)cc2)c(/N=N/c2cncc(Cl)c2)c1O [JZ-1-107]	19.7						0
Oc1[nH]nc(-c2ccc(F)cc2)c1/N=N/c1cccnc1 [JZ-1-110-1]	3.3						0
Oc1[nH]nc(-c2ccc(F)cc2)c1/N=N/c1cncc(Cl)c1 [JZ-1-110-2]	0						19.3
COc1cccc(CCc2c(-c3ccc([N+](=O)[O-])cc3)nn(C(=N)N)c2O)c1 [JZ-1-135-1]	9.5						54.1
N=C(N)n1nc(-c2ccccn2)c(CCc2cccc(Cl)c2)c1O [JZ-1-135-2]	0			Toxic			
Oc1c(Cc2ccc(F)cc2)c(-c2ccc(F)cc2)nn1-c1ccccn1 [JZ-1-178]	34.7						0
NC(=S)n1nc(-c2ccc([N+](=O)[O-])cc2)c(/N=N/c2ccc(Cl)cc2)c1O [KM-1-46]	37.2						43.6
